Where “and” joins values, the source holds several entries; their conditions need not be identical. Equal values may be shown once.

This note sets out measurements from Sander's compilation of Henry's law constants.

This series in a line: Henry solubility constant Hcp at 298.15 K (mol/(m3 Pa)).
[1] abbreviates: reference: Charles and Destaillats (2005).
Setting [2] is: reference: Amoore and Buttery (1978).
Where [3] appears, read: reference: Fenclová et al. (2014).
[4] abbreviates: reference: Souchon et al. (2004).
Where [5] appears, read: reference: Christie and Crisp (1967).
The mark [6] stands for this setting: reference: Murphy et al. (1983a).
The mark [7] stands for this setting: reference: Fenclová et al. (2010).
[8] abbreviates: reference: Cetin and Odabasi (2005).

For `FC(F)(F)Cl` [chlorotrifluoromethane], the “Henry solubility constant Hcp” value is, setting by setting: (reference: Park et al. (1982)) 7.8e-06; (reference: Reichl (1995)) 8.9e-06; (reference: Scharlin and Battino (1994)) 9e-06; (reference: Scharlin and Battino (1995)) 9e-06.
`CF` [fluoromethane]: the “Henry solubility constant Hcp” value was found to be 0.00058 (reference: Glew and Moelwyn-Hughes (1953)); 0.00058 (reference: Swain and Thornton (1962)).
Take `Clc1ccccc1-c1ccccc1` [2-chlorobiphenyl]: under setting [1], the “Henry solubility constant Hcp” value is 0.03.
Turning to `BrCCCCCCCCBr` [1,8-dibromooctane], the “Henry solubility constant Hcp” value (reference: Sarraute et al. (2006)) was 0.013.
Regarding `FC(F)(F)C(F)(F)Cl` [chloropentafluoroethane], under “reference: Reichl (1995)”, the “Henry solubility constant Hcp” value was found to be 3.1e-06.
As for `C#CC` [propyne], the “Henry solubility constant Hcp” value was determined as 0.00062 (reference: Inga and McKetta (1961)); 0.00077 (reference: Simpson and Lovell (1962)).
Take `Brc1ccc(Oc2ccccc2)cc1` [4-bromodiphenyl ether]: the “Henry solubility constant Hcp” value under setting [1] is 0.058.
Consider `CC12CCC(CC1)C(C)(C)O2` [1,3,3-trimethyl-2-oxabicyclo[2.2.2]octane], for which the “Henry solubility constant Hcp” value was found to be 0.12 under setting [2] and 0.059 (reference: Kish et al. (2013)).
In the case of `c1ccc2cc3ccccc3cc2c1` [anthracene], the “Henry solubility constant Hcp” value reads like this: (reference: Alaee et al. (1996)) 0.2; (reference: Bamford et al. (1999b)) 0.15; (reference: Reza and Trejo (2004)) 0.23; (reference: Southworth (1979)) 0.15; (reference: Webster et al. (1985)) 0.27.
Consider `[Rn]` [radon], for which the “Henry solubility constant Hcp” value by setting is: (reference: Lewis et al. (1987)) 9.4e-05; (reference: Ramstedt (1911)) 0.0001.
Regarding `CCCC(=O)OCC` [ethyl butanoate], the “Henry solubility constant Hcp” value is, setting by setting: (reference: Aprea et al. (2007)) 0.024; under setting [3], 0.029; (reference: Landy et al. (1995)) 0.024; (reference: Landy et al. (1996)) 0.04; under setting [4], 0.026.
As for `CCCCCCN` [1-hexanamine], the “Henry solubility constant Hcp” value under setting [5] amounted to 0.37.
On to `O[Si](O)(O)O` [silicic acid], for which the “Henry solubility constant Hcp” value (reference: Plyasunov (2012)) stood at 2.3e+10.
For `CN=C=O` [methyl isocyanate], where the note is “reference: Roberts and Liu (2019)”, the “Henry solubility constant Hcp” value amounted to 0.013.
Take `CC1(C)C2CC3OC3(C)C1C2` (configuration not stated) [2,7,7-trimethyl-3-oxatricyclo[4.1.1.0(2,4)]octane]: for the setting “reference: Fichan et al. (1999)”, the “Henry solubility constant Hcp” value came to 0.023.
Turning to `O=[N+]([O-])c1ccccc1` [nitrobenzene], the “Henry solubility constant Hcp” value (reference: Warner et al. (1980)) is 0.41.
For `CCCC=O` [butanal], the “Henry solubility constant Hcp” value reads like this: (reference: Buttery et al. (1965)) 0.064; (reference: Ji and Evans (2007)) 0.089.
For `NCCOCCO` [diglycolamine], under “reference: Nguyen (2013)”, the “Henry solubility constant Hcp” value amounted to 6100.
As to `Clc1ccc(-c2ccccc2Cl)cc1Cl` [2,3',4'-trichlorobiphenyl], the “Henry solubility constant Hcp” value is, setting by setting: under setting [6], 0.066; (reference: Westcott et al. (1981)) 0.025.
Regarding `CCC(C)CO` (configuration not stated) [2-methyl-1-butanol], the “Henry solubility constant Hcp” value by setting is: (reference: Butler et al. (1935)) 0.7; under setting [7], 0.78.
For the compound `O=C(O)C(F)(F)C(F)(F)F` [perfluoropropanoic acid], for the setting “reference: Kwan (2001)”, the “Henry solubility constant Hcp” value turned out to be 8.8.
As for `CC(N)CO` (configuration not stated) [2-amino-1-propanol], the “Henry solubility constant Hcp” value (reference: Nguyen (2013)) is 1300.
For `CC(C)CCO[N+](=O)[O-]` [3-methyl-1-butanol nitrate], under “reference: Hauff et al. (1998)”, the “Henry solubility constant Hcp” value was found to be 0.005.
With `Brc1cc(Br)c(Br)cc1Br` [1,2,4,5-tetrabromobenzene], the “Henry solubility constant Hcp” value (reference: Kuramochi et al. (2004)) was found to be 0.0027.
For `COc1cc(CCC(C)=O)ccc1O` [zingerone], under “reference: McFall et al. (2020)”, the “Henry solubility constant Hcp” value is 12000.
For `O=C1CCCCCCCCCCCCCCO1` [oxacyclohexadecan-2-one], the “Henry solubility constant Hcp” value under setting [2] is 0.004.
Turning to `CC(C)S` [2-propanethiol], the “Henry solubility constant Hcp” value (reference: Haimi et al. (2006)) came to 0.0013 and the “Henry solubility constant Hcp” value (reference: Zin et al. (2016)) is 0.0016.
Turning to `C1CCCCCCC1` [cyclooctane], under “reference: Dohányosová et al. (2004)”, the “Henry solubility constant Hcp” value was 6.9e-05.
For `Clc1ccc(-c2cc(Cl)c(Cl)cc2Cl)cc1Cl` [2,3',4,4',5-pentachlorobiphenyl], the “Henry solubility constant Hcp” value is, setting by setting: under setting [1], 0.018; under setting [6], 0.025.
As for `CCCCCN` [1-pentanamine], the “Henry solubility constant Hcp” value is, setting by setting: under setting [2], 0.31; under setting [5], 0.4.
As for `N#Cc1c(Cl)c(Cl)c(Cl)c(C#N)c1Cl` [2,4,5,6-tetrachloro-1,3-dicyanobenzene], where the note is “reference: Kawamoto and Urano (1989)”, the “Henry solubility constant Hcp” value was found to be 50.
Take `c1ccc2c(c1)[nH]c1ccccc12` [carbazole]: the “Henry solubility constant Hcp” value (reference: Odabasi et al. (2006)) is 93.
For `CCC(C)O[N+](=O)[O-]` (configuration not stated) [2-butyl nitrate], the “Henry solubility constant Hcp” value runs as follows: (reference: Hauff et al. (1998)) 0.0044; (reference: Luke et al. (1989)) 0.0063.
`Clc1ccc2c(c1)Oc1ccc(Cl)cc1O2` [2,7-dichlorodibenzo-p-dioxin]: under “reference: Santl et al. (1994)”, the “Henry solubility constant Hcp” value turned out to be 0.17.
With `CC1=CCC(C(C)C)C=C1` (stereo not drawn) [α-phellandrene], where the note is “reference: Copolovici and Niinemets (2005)”, the “Henry solubility constant Hcp” value was determined as 0.00018.
In the case of `O=C(O)C(F)(F)C(F)(F)C(F)(F)C(F)(F)F` [perfluoropentanoic acid], under “reference: Kwan (2001)”, the “Henry solubility constant Hcp” value was found to be 0.67.
Take `ClCC(Cl)CCCCCCCC(Cl)CCl` (configuration not stated) [1,2,10,11-tetrachloroundecane]: the “Henry solubility constant Hcp” value (reference: Drouillard et al. (1998)) stood at 0.16.
As to `O=C(O)C(F)(F)C(F)(F)C(F)(F)C(F)(F)C(F)(F)F` [perfluorohexanoic acid], for the setting “reference: Kwan (2001)”, the “Henry solubility constant Hcp” value is 1.1.
As to `CCCOC=O` [propyl methanoate], the “Henry solubility constant Hcp” value (reference: Kutsuna et al. (2005)) stood at 0.026.
Turning to `CCCC(=O)SC` [S-methyl butanethioate], the “Henry solubility constant Hcp” value under setting [4] amounted to 0.026.
`Brc1cc(Br)c(Oc2cc(Br)c(Br)cc2Br)cc1Br` [2,2',4,4',5,5'-hexabromodiphenyl ether]: the “Henry solubility constant Hcp” value under setting [8] worked out at 3.5 and the “Henry solubility constant Hcp” value (reference: Long et al. (2017)) came to 3.7.
`FC(F)(F)CCl` [2-chloro-1,1,1-trifluoroethane]: the “Henry solubility constant Hcp” value (reference: Maaßen (1995)) is 0.00037 and the “Henry solubility constant Hcp” value (reference: Reichl (1995)) was determined as 0.00041.
Take `Brc1ccc(Oc2cc(Br)c(Br)cc2Br)c(Br)c1` [2,2',4,4',5-pentabromodiphenyl ether]: the “Henry solubility constant Hcp” value turned out to be 1.5 under setting [8], 0.27 under setting [1] and 1.5 (reference: Long et al. (2017)).
Take `C=CC(=C)C` [2-methyl-1,3-butadiene]: the “Henry solubility constant Hcp” value is, setting by setting: (reference: Leng et al. (2013)) 0.00034; (reference: Schuhfried et al. (2015)) 0.0003.
In the case of `CC(=O)C(F)(F)F` [1,1,1-trifluoro-2-propanone], the “Henry solubility constant Hcp” value (reference: Betterton (1991)) is 1.4.
With `CN1CCN(C)CC1` [N,N'-dimethylpiperazine], for the setting “reference: Nguyen (2013)”, the “Henry solubility constant Hcp” value was determined as 200.
Take `CC(=O)CCC=C(C)C` [6-methyl-5-hepten-2-one]: the “Henry solubility constant Hcp” value (reference: Wu et al. (2022b)) turned out to be 0.12.
With `CCCCOC=O` [butyl methanoate], the “Henry solubility constant Hcp” value (reference: Wittig et al. (2001)) was determined as 0.019.
In the case of `CCC(=O)OC` [methyl propanoate], the “Henry solubility constant Hcp” value (reference: Ioffe et al. (1984)) amounted to 0.052.
`OCCC(F)(F)C(F)(F)C(F)(F)C(F)(F)C(F)(F)C(F)(F)F` [1H,1H,2H,2H-perfluoro-1-octanol]: the “Henry solubility constant Hcp” value is, setting by setting: (reference: Goss et al. (2006)) 0.0015; (reference: Lei et al. (2004)) 8.5e-05; (reference: Wu and Chang (2011)) 0.00017.
Turning to `[Kr]` [krypton], the “Henry solubility constant Hcp” value is 2.6e-05 (reference: Cosgrove and Walkley (1981)); 2.5e-05 (reference: Crovetto et al. (1982)); 2.5e-05 (reference: Krause and Benson (1989)); 2.4e-05 (reference: Morrison and Johnstone (1954)); 3.4e-05 and 2.8e-05 (reference: von Antropoff (1910)).
On to `COC(C)=O` [methyl ethanoate], for which the “Henry solubility constant Hcp” value reads like this: (reference: Arp and Schmidt (2004)) 0.066; (reference: Butler and Ramchandani (1935)) 0.11; under setting [3], 0.081; (reference: Ioffe et al. (1984)) 0.077; (reference: Kieckbusch and King (1979b)) 0.077; (reference: McKeown and Stowell (1927)) 0.087.
With `CCCCCCCCC` [nonane], the “Henry solubility constant Hcp” value by setting is: (reference: Jönsson et al. (1982)) 1.8e-06; (reference: Park et al. (1997)) 1.9e-06.
For `Cc1ccc(Cl)cc1Cl` [2,4-dichloro-1-methylbenzene], the “Henry solubility constant Hcp” value (reference: Brockbank et al. (2013)) was 0.0027.
For the compound `CN1CCNCC1` [N-methylpiperazine], the “Henry solubility constant Hcp” value (reference: Nguyen (2013)) is 1800.
For `CC(C)CCO` [3-methyl-1-butanol], the “Henry solubility constant Hcp” value stood at 0.67 (reference: Ammari and Schroen (2019)); 0.82 under setting [7].
Consider `CCCCCCCCCC(=O)OCC` [ethyl decanoate], for which the “Henry solubility constant Hcp” value (reference: Aprea et al. (2007)) amounted to 0.014.
